The values below come from paper PMC8191380 (Nucleosides, nucleotides & nucleic acids, 2019).

Each structure is given as a SMILES string. Like-named read-outs stand apart in the source and are kept apart here.

In series [1] the test system is HBV. The conditions noted are these: read-out: anti-HBV activity EC50; cited from earlier work.
Series [2] concerns HBV. Nature of the series: Anti-HBV assay in HBV-producing HepG2 2.2.15 cells. In kind it is cell-based, Hepatitis B virus. The conditions noted are these: read-out: EC50 (50% effective concentration; concentration that inhibits 50% of virus replication).
For the next series, the system named is MT-2 cells. Nature of the series: Cytotoxicity in MT-2 cells. In kind it is cell-based. The conditions noted are these: for CC50: read-out: CC50 (50% cytotoxic concentration).
The subject of series [3] is HBV. The note with it: read-out: anti-HBV activity EC50; cited from earlier work. This is another data set of the same source.
The subject of series [4] is HIV. The note with it: read-out: anti-HIV activity EC50; reported in 1992; cited from earlier work.
Series [5] is described as follows: Cytotoxicity in MT-2 cells. In kind it is cell-based. The note with it: human.
Series [6] deals with HBV. The note with it: cited from earlier work; for EC50: read-out: anti-HBV activity EC50.
The test system of another series is HIV-1. The note with it: cited from earlier work.
The conditions of series [7]: cited from earlier work.
The next series has as its system wild-type HBV. The note with it: cited from earlier work.
In a further series the test system is entecavir-resistant HBV. The conditions noted are these: cited from earlier work.
For series [8], the system named is HIV. The note with it: cited from earlier work.
Setting [9] is: HepG2 2.2.15 cells, day 14, HBV DNA.
[10] abbreviates: Hepatitis B virus, HepG2 2.2.15, 336 h.

Regarding `[N-]=[N+]=N[C@]1(CO)O[C@@H](n2ccc(N)nc2=O)[C@H](F)[C@@H]1O` [Compound 5, 2′-deoxy-2′-P-fluoro-4′-azido cytidine], in the series on HBV [1], the EC50 is 0.12 µM.

Take `CCOc1nc(=O)n([C@H]2C[C@H](O)[C@](CO)(N=[N+]=[N-])O2)cc1C` [Compound 12, 4′-Azido-O^4-ethylthymidine]: the EC50 in the series on HBV [2] (setting [9]) is above 100 µM. The CC50 in the series with MT-2 cells was above 100 µM.

Take `Cc1cn([C@H]2C[C@H](F)[C@@H](CO)O2)c(=O)nc1N` [Compound 8, FddMeC]: the EC50 in the series with HBV [3] was 0.54 µM.

As for `Cc1cn([C@H]2C[C@H](O)[C@](CO)(N=[N+]=[N-])O2)c(=O)[nH]c1=O` [Compound 6, 4′-azido thymidine], the results for the EC50 in the series on HBV [2] (setting [10]) and in the series on HIV [4] were 0.63 ± 0.29 µM and 0.01 µM, respectively. The “no cytotoxicity up to (concentration)” value in the series with MT-2 cells was above 100 µM. For the same compound, the CC50 in series [5] is above 100 µM.

With `[N-]=[N+]=N[C@]1(CO)O[C@@H](n2cnc3c(N)nc(N)nc32)C[C@@H]1O` [Compound 4, 4′-azido-2-amino-2′-deoxyadenosine], in the series on HBV [6], the “potency against HBV (in words)” value was “highly potent” and the EC50 was 0.0051 µM. Further, in the series on HIV-1, the “potency against HIV-1 (in words)” value is given as “highly potent”.

For the compound `[N-]=[N+]=N[C@]1(CO)O[C@@H](n2ccc(N)nc2=O)C[C@@H]1O` [4′-azido-2′-deoxycytidine], in series [7], the “cytotoxicity CC25” value is 0.21 µM.

`N#C[C@]1(CO)O[C@@H](n2cnc3c(=O)[nH]c(N)nc32)C[C@@H]1O` [Compound 1, 4′-cyano-2′-deoxyguanosine]: the “replication of wild-type HBV (in words)” value in the series with wild-type HBV is given as “block the replication”. In the series with entecavir-resistant HBV, the “replication of entecavir-resistant HBV (in words)” value was “block the replication”. Further, the “anti-HIV activity (in words)” value in the series on HIV [8] is listed as “potent anti-HIV activity”.

For `COc1nc(=O)n(C2CC(O)C(CO)(N=[N+]=[N-])O2)cc1C` (stereo not shown) [Compound 11, 4′-Azido-O^4-methylthymidine], the EC50 with HBV [2] (setting [9]) was above 100 µM. Further, in the series on MT-2 cells, the CC50 is above 100 µM.

As to `CNc1nc(=O)n([C@H]2C[C@H](O)[C@](CO)(N=[N+]=[N-])O2)cc1C` [Compound 13, 4′-Azido-2′-deoxy-N4,5-dimethylcytidine], the EC50 in the series with HBV [2] (setting [10]) was above 100 µM. The CC50 in series [5] is above 100 µM.

In the case of `[N-]=[N+]=N[C@]1(CO)O[C@@H](n2cnc3c(=O)[nH]c(N)nc32)C[C@@H]1O` [Compound 3, 4′-azido-2′-deoxyguanosine], in the series on HBV [6], the “potency against HBV (in words)” value is “highly potent” and the EC50 was 0.0097 µM. Moreover, in the series on HIV-1, the “potency against HIV-1 (in words)” value is given as “highly potent”.

With `CCNc1nc(=O)n([C@H]2C[C@H](O)[C@](CO)(N=[N+]=[N-])O2)cc1C` [Compound 14, 4′-Azido-2′-deoxy-N^4-ethyl-5-methylcytidine], in the series with HBV [2] (setting [10]), the EC50 is above 100 µM. In series [5], the CC50 is above 100 µM.

With `C=C1[C@H](CO)[C@@H](O)C[C@@H]1n1cnc2c(=O)[nH]c(N)nc21` [Entecavir], the EC50 with HBV [2] (setting [10]) came out at 0.00675 ± 0.000353 µM. For the same compound, the CC50 in [5] came out at 57.2 ± 5.2 µM.

As for `N#C[C@]1(CO)O[C@@H](n2cnc3c(N)nc(N)nc32)C[C@@H]1O` [Compound 2, 4′-cyano-2-amino-2′-deoxyadenosine], the “replication of wild-type HBV (in words)” value in the series on wild-type HBV is reported as “block the replication”. Also, in the series on entecavir-resistant HBV, the “replication of entecavir-resistant HBV (in words)” value is “block the replication”. Also, the “anti-HIV activity (in words)” value in the series on HIV [8] was “potent anti-HIV activity”.

`Cc1cn([C@H]2C[C@H](O)[C@](CO)(N=[N+]=[N-])O2)c(=O)nc1NC1CC1` [Compound 15, 4′-Azido-N′-cyclopropyl-2′-deoxy-5-methylcytidine]: the EC50 in the series with HBV [2] (setting [9]) is above 100 µM. Moreover, the CC50 in the series with MT-2 cells was above 100 µM.

Turning to `Cc1cn([C@H]2C[C@H](O)[C@](CO)(N=[N+]=[N-])O2)c(=O)nc1N` [Compound 10, 4′-Azido-2′-deoxy-5-methylcytidine], the EC50 with HBV [2] (setting [10]) was 5.99 ± 5.54 µM. For the same compound, the “no cytotoxicity up to (concentration)” value with MT-2 cells is above 100 µM. Also, the CC50 in [5] is above 100 µM.
